Data set [1] has as its system Chinese hamster lung (DC3F/ADX) and breast cancer (MCF-7 adrr) cell lines. The arrangement: method as in Politi et al., 1990. To be noted: multidrug resistant mutants; ref Politi et al., 1990; cited from earlier work.
Data set [2] relates to drug resistant variant of the Ridgway osteogenic sarcoma. The arrangement: method as in Merry et al., 1991. To be noted: in vivo model; ref Merry et al., 1991; cited from earlier work.
A further data set relates to S1/1.1 cell line. To be noted: for Enhancement: S1/1.1, IC50 etoposide alone divided by IC50 with MNTC tamoxifen. An excerpt: (§1) Br. J. Cancer (1992), 66, 833-839 ? […] Clinical effects and in vitro assessment in p-glycoprotein expressing cell lines N.S.A. Stuart', P. Philip', A.L. Harris', K. Tonkin', S. Houlbrook2, J. Kirk2, E.A. Lien3 & J. Carmichael' 'ICRF Clinical Oncology Unit, Churchill Hospital, Oxford OX3 7LJ; 2MRC Radiobiology Unit, Chilton, Didcot, Oxon; 3Department of Pharmacology and Toxicology, University of Bergen, Bergen, Norway. […] Cytotoxic drug resistance frequently affects a wide range of cytotoxic agents. It is commonly inherent, although it may also be acquired after initial response to cytotoxic drugs. Cell lines exposed in vitro to one cytotoxic drug may also become resistant to a range of structurally and functionally diverse agents. This multidrug resistant (MDR) phenotype is associ- ated with the presence of a 170 kd membrane glycoprotein, the P-glycoprotein (Pgp) (Juliano et al., 1976; Kartner et al., 1983; Riordan et al., 1985) which acts as an energy depen- dent efflux pump (Skovsgaard, 1978). […] Unfor- tunately many cause unacceptable toxicity at levels below those needed to modulate resistance and have therefore not been useful clinically (Ozols et al., 1987). Some encouraging results have however been reported in lymphoid malignan- cies. […] It is widely used in the treatment of breast cancer at doses of 20-40mgday-' and at such doses produces serum levels around 0.5 JiM (Adam et al., 1980; Fabian et al., 1980; Lien et al., 1989). […] Etoposide (VP16-213, Vepesid) is an epipodophyllotoxin derived cytotoxic drug which interferes with the action of the nuclear enzyme topoisomerase II producing lethal single and double stranded DNA breaks (Chen et al., 1984). It has activity in a number of solid tumours and resistance to it is part of the typical MDR phenotype (Endicott et al., 1989). […] The study therefore included patients with a range of relapsed and chemoresistant tumours. […] Patients had ECOG performance scores of 2 or better, had normal renal and hepatic function and had normal peripheral blood counts. […] Correspondence: N.S. Stuart. Received 13 March 1992; and in revised form 8 July 1992. 'PI Macmillan Press Ltd., 1992 Br. J. Cancer (1992), 66, 833-839 834 N.S.A. STUART et al. No formal compliance check was conducted but patients were asked specifically whether they had difficulties taking the correct number of tablets. Oral etoposide was given at a dose of 300mgday-' (150mg two times day-') for the first course. Patients who remained myelosuppressed on day 21 had the dose of etoposide reduced to 200 mg day-' for subse- quent courses. In those who had no significant myelosuppres- sion the dose of etoposide was increased to 400 mg day-'. […] Blood samples were centrifuged and the serum removed and stored at -20?C prior to measurement. […] The methods used have been published previously (Lien et al., 1989; 1987). […] The drugs were detected by being converted to fluorophors by subjecting the effluent of the column to ultra-violet light while passing through a quartz tube. The identity of the analyses was confirmed by liquid chromatography/mass spec- trometry using an on-line mass spectrometer connected to the analytical column (Lien et al., 1988). Serum levels in different patient populations were compared using the Mann-Whitney U-test. Cells and culture conditions Three pairs of cell lines were assessed. Each comprised a wild-type parental cell line and a P-glycoprotein expressing daughter line. The wild-type MCF-7 cell line was derived from a human breast cancer (Soule et al., 1973) while the CHO-KI cell line was derived from Chinese hamster ovaries (CHO).

Data set [3] concerns CHO-KI cell line. To be noted: IC50 etoposide alone divided by IC50 with MNTC tamoxifen.
Description: as §1

Description in data set [4]: as §1
The subject of data set [5] is CHO-KI adrr cell line. The conditions noted are these: for Enhancement: CHO-KI adrr, IC50 etoposide alone divided by IC50 with MNTC tamoxifen.
Description: as §1

The subject of data set [6] is CHO-KI cell line. Also noted: method as in Chatterjee et al., 1990b. To be noted: parental CHO-KI line; ref Chatterjee et al., 1990b; cited from earlier work.
The test system of data set [7] is MCF-7 adrr cell line. The arrangement: method as in Foster et al., 1988. The conditions noted are these: ref Foster et al., 1988; cited from earlier work.
Data set [8] relates to multidrug resistance in vitro. The arrangement: method as in earlier work. The conditions noted are these: ref Chatterjee et al., 1990b; Foster et al., 1988; Ramu et al., 1984; cited from earlier work.
In data set [9] the test system is CHO-KI adrr cell line. Also noted: method as in Chatterjee et al., 1990b. The conditions noted are these: dox resistant CHO-KI adrr line; ref Chatterjee et al., 1990b; cited from earlier work.
Another data set concerns MCF-7 wt cell line. Kind of data set: cells.
Description: as §1

The next data set deals with S1 cell line (SW-1573). The data set is described as follows: cells. The conditions noted are these: for Enhancement: S1, IC50 etoposide alone divided by IC50 with MNTC tamoxifen.
Description: as §1

The test system of data set [10] is MCF-7 adrr cell line. The data set is described as follows: cells.
Description: as §1

Data set [11] has as its system P388/ADR murine leukaemia line. The arrangement: method as in Ramu et al., 1984. The conditions noted are these: ref Ramu et al., 1984; cited from earlier work.
The conditions of data set [12]: cited from earlier work.
Another data set relates to human BRO melanoma cells. Also noted: method as in Lincke et al., 1990. To be noted: parental BRO cell line; ref Lincke et al., 1990; read-out: IC50 for etoposide; cited from earlier work.
Where [13] appears, read: Homo sapiens, MCF7, 96 h, read-out: IC50 etoposide.

The values that follow come from PMC1977984 (British Journal of Cancer, 1992).

One may read the pIC50 as the IC50 on a negative log10 scale, so that one unit is a factor of ten.

pIC50: −log10 of the molar value. Read-outs that look alike come from different tables or passages of the source. Starred links: 1 amine or outer side, 2 acyl side, 3 side chain; linkers in the order of their positions; H or OH if unused. Positions of bridges follow the written chain, without caps; N, C: chain ends. Non-standard residues stand in square brackets, D forms with d. Residues, ends and D or L forms follow the SMILES beside them. Chains are numbered I, II in the order given. Actinocin(9to1) = Cc1c2oc3c(C)ccc(C(=O)[*:1])c3nc-2c(C(=O)[*:2])c(N)c1=O; NMeV = CN[C@H](C(=O)O)C(C)C; Sar = CNCC(=O)O

Take `COc1ccc(CCN(C)CCCC(C#N)(c2ccc(OC)c(OC)c2)C(C)C)cc1OC` (stereo not drawn) [verapamil]: in [1], the “Effect on etoposide resistance” value is listed as 3-4 fold and the “Enhancement (reversal of resistance to vincristine)” value is on record as 11-125 fold.
Turning to `CC[C@]1(O)C[C@H]2CN(CCc3c([nH]c4ccccc34)[C@@](C(=O)OC)(c3cc4c(cc3OC)N(C=O)[C@H]3[C@@](O)(C(=O)OC)[C@H](OC(C)=O)[C@]5(CC)C=CCN6CC[C@]43[C@@H]65)C2)C1` [vincristine], the “Resistance of the drug resistant variant” value in data set [2] is reported as 3.5 fold.
For `CC/C(=C(\c1ccccc1)c1ccc(OCCN(C)C)cc1)c1ccccc1` [tamoxifen], the Enhancement with S1/1.1 cell line is recorded as 0.9; in the data set with S1/1.1 cell line (listed as Tamoxifen), “no significant effect”; in the data set with CHO-KI cell line [3] it was 1.0; in the data set on CHO-KI cell line [3] (listed as Tamoxifen), “no significant effect”; in the data set with CHO-KI adrr cell line [5], 0.85; with CHO-KI adrr cell line [5] (listed as Tamoxifen), “no significant effect”. The Enhancement is recorded as 1.2 in the data set on MCF-7 wt cell line (MCF-7 wt, IC50 etoposide alone divided by IC50 with MNTC tamoxifen); 0.9 in the data set on S1 cell line (SW-1573); “no significant effect” in the data set with S1 cell line (SW-1573) (listed as Tamoxifen); 0.7 in the data set with MCF-7 adrr cell line [10] (MCF-7 adrr, IC50 etoposide alone divided by IC50 with MNTC tamoxifen). Further, the “Neurological symptoms: Severe/v. severe (number of patients)” value was 0 in [4] (tamoxifen 480 mg day-1, total 10 patients) and 1 (6%) in data set [4] (tamoxifen 720 mg day-1, total 16 patients). The “Enhancement of dox cytotoxicity” value in the data set with CHO-KI cell line [6] is given as 4.8 fold; in the data set on CHO-KI adrr cell line [9], 16 fold. The “Reversal of adriamycin and vinblastine resistance” value with MCF-7 adrr cell line [7] is on record as “partial reversal”. Further, in data set [8], the “Levels sufficient to modulate multidrug resistance in vitro” value is listed as 3-10 JAM. Further, the “Reversal of adriamycin resistance” value in data set [11] is “partially reversed the resistance”. The Serum levels was 6.1 µM in data set [12] (after 9 days on 260 mg of tamoxifen twice a day, ref Trump et al., 1991); “around 4 microM” in data set [12] (continuing tamoxifen 480 mg day-1 indefinitely, ref Stuart et al., 1991); “around 0.5 microM” in data set [12] (tamoxifen doses of 20-40 mg day-1 in breast cancer, ref Adam et al., 1980, Fabian et al., Lien et al., 1989). The “Steady state serum levels” value in [12] (standard dose tamoxifen 20-40 mg day-1, after 4 weeks, ref Adam et al., 1980, Fabian et al., 1980, Lien et al., 1989) is 0.25 to 1.0 µM. The “Serum levels, plateau” value in [12] (tamoxifen 160 mg three times a day, after 10 days, ref Stuart et al., 1991) is “around 4 microM”.
Turning to `COc1cc([C@@H]2c3cc4c(cc3[C@@H](O[C@@H]3O[C@@H]5CO[C@@H](C)O[C@H]5[C@H](O)[C@H]3O)[C@H]3COC(=O)[C@H]23)OCO4)cc(OC)c1O` [etoposide], the “More sensitive than the parental line” value in the data set on S1/1.1 cell line (S1/1.1 versus S1, P<0.01) amounted to 2 fold. For the same compound, the Thrombocytopenia result in data set [4] (human, in vivo, po) is reported as “No significant thrombocytopenia”. Also, the “More resistant than its parental line” value with CHO-KI adrr cell line [5] (CHO-KI adrr versus CHO-KI) was 5 fold. Besides, in data set [2], the “Resistance of the drug resistant variant” value is on record as 5 fold. The pIC50 was 6.02 in the data set on MCF-7 wt cell line (setting [13]); 5.52 in the data set on S1 cell line (SW-1573) (Homo sapiens, SW1573, 96 h, read-out: IC50 etoposide); 4.22 in the data set on MCF-7 adrr cell line [10] (setting [13]); 7.80 in the data set with human BRO melanoma cells. In the data set on MCF-7 adrr cell line [10] (MCF-7 adrr versus MCF-7 wt), the “Resistance to etoposide in comparison to the MCF-7 wild type cell line” value is 60 fold.
`Cc1c2oc3c(C)ccc(C(=O)N[C@@H]4C(=O)N[C@H](C(C)C)C(=O)N5CCC[C@H]5C(=O)N(C)CC(=O)N(C)[C@@H](C(C)C)C(=O)O[C@@H]4C)c3nc-2c(C(=O)N[C@@H]2C(=O)N[C@H](C(C)C)C(=O)N3CCC[C@H]3C(=O)N(C)CC(=O)N(C)[C@@H](C(C)C)C(=O)O[C@@H]2C)c(N)c1=O` [actinomycin- D, actinomycin-D] (I: T[dV]P[Sar][NMeV] / II: T[dV]P[Sar][NMeV]; ester I:1-I:C, II:1-II:C; linker I:N-II:N via Actinocin(9to1)): the “Resistance of the drug resistant variant” value in data set [2] is recorded as 1.5 fold.
Regarding `CC/C(=C(\c1ccccc1)c1ccc(OCCN)cc1)c1ccccc1` [didesmethyltamoxifen], the “Levels lower than those of the parent compound” value in data set [12] (in vivo) was 60-85%.
